# According to patent US12052991B2, “Substituted pyridinyloxybenzenes and salts thereof and use thereof as herbicidal agents” (Bayer Aktiengesellschaft, priority 2018, dated 2024):
# Tests used:
# Type in all cases: in vivo
# Poa annua (POAAN) [1] = experiment: Herbicidal pre-emergence action, test C (Table C3); conditions: visual scoring after about 3 weeks, 100% = plants have died, 0% = like control plants
# In short: (§1)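 Pre-emergence soil-surface spray, 1280 or 320 g/ha, WP/EC in water with 0.5% additive, 600 L/ha. Sandy loam pots, doubly sown. Greenhouse ~3 weeks; visual % effect vs untreated (0% = like control, 100% = dead).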
# [2] = system: Echinochloa crus-galli (ECHCG); experiment: Herbicidal post-emergence action (Table B1); conditions: rated visually after about 3 weeks, 100% = plants have died, 0% = like control plants
# In short: (§2)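 Weeds grown from seed in sandy loam in the greenhouse were sprayed at the one-leaf stage, 2 to 3 weeks after sowing, with WP or EC formulations in water plus 0.5% additive at 600 L/ha. Rates corresponded to 1280 or 320 g/ha; damage was rated visually versus untreated controls after about 3 weeks.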
# [3] = system: Amaranthus retroflexus (AMARE); experiment: Herbicidal pre-emergence action, test C (Table C6); conditions: visual scoring after about 3 weeks, 100% = plants have died, 0% = like control plants
# In short: as §1
# [4] = system: harmful plants ABUTH, AMARE, ECHCG, LOLRI, MATIN, POAAN, SETVI, STEME, ALOMY, DIGSA, KCHSC and VERPE; experiment: Herbicidal post-emergence action, summary of Tables B1-B12; conditions: application rate of 1280 or 320 g of active ingredient per hectare; summary in words
# In short: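 Greenhouse weeds in sandy loam treated post-emergence at the one-leaf stage, 2–3 weeks after sowing, with WP or EC formulations sprayed with 0.5% additive at 600 L/ha water, 1280 or 320 g/ha. Damage rated visually after about 3 weeks versus untreated controls (0% = like control, 100% = dead).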
# [5] = system: Abutilon theophrasti (ABUTH); experiment: Herbicidal post-emergence action (Table B5); conditions: rated visually after about 3 weeks, 100% = plants have died, 0% = like control plants
# In short: as §2
# Setaria viridis (SETVI) [6] = experiment: Herbicidal post-emergence action (Table B4); conditions: rated visually after about 3 weeks, 100% = plants have died, 0% = like control plants
# In short: as §2
# Stellaria media (STEME) [7] = experiment: Herbicidal pre-emergence action, test C (Table C8); conditions: visual scoring after about 3 weeks, 100% = plants have died, 0% = like control plants
# In short: as §1
# [8] = system: Echinochloa crus-galli (ECHCG); experiment: Herbicidal pre-emergence action, test C (Table C1); conditions: visual scoring after about 3 weeks, 100% = plants have died, 0% = like control plants
# In short: as §1
# Poa annua (POAAN) [9] = experiment: Herbicidal post-emergence action (Table B3); conditions: rated visually after about 3 weeks, 100% = plants have died, 0% = like control plants
# In short: as §2
# Lolium rigidum (LOLRI) [10] = experiment: Herbicidal post-emergence action (Table B2); conditions: rated visually after about 3 weeks, 100% = plants have died, 0% = like control plants
# In short: as §2
# [11] = system: harmful plants ABUTH, AMARE, ECHCG, LOLRI, MATIN, POAAN, SETVI, STEME, ALOMY, DIGSA, KCHSC and VERPE; experiment: Herbicidal pre-emergence action (test C), summary of Tables C1-C12; conditions: application rate of 1280 or 320 g of active ingredient per hectare; summary in words
# In short: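 Pre-emergence pot test in sandy loam: WP or EC formulations were sprayed onto the covering soil with 0.5% additive at 600 L/ha water, at 1280 or 320 g/ha. Plants were kept in the greenhouse, and activity was rated visually about 3 weeks later as % versus untreated controls (100% = dead).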
# Setaria viridis (SETVI) [12] = experiment: Herbicidal pre-emergence action, test C (Table C4); conditions: visual scoring after about 3 weeks, 100% = plants have died, 0% = like control plants
# In short: as §1
# Lolium rigidum (LOLRI) [13] = experiment: Herbicidal pre-emergence action, test C (Table C2); conditions: visual scoring after about 3 weeks, 100% = plants have died, 0% = like control plants
# In short: as §1
# Stellaria media (STEME) [14] = experiment: Herbicidal post-emergence action (Table B8); conditions: visual rating about 3 weeks after treatment, 100% = plants have died, 0% = like control plants
# In short: as §2
# [15] = system: Abutilon theophrasti (ABUTH); experiment: Herbicidal pre-emergence action, test C (Table C5); conditions: visual scoring after about 3 weeks, 100% = plants have died, 0% = like control plants
# In short: as §1
# [16] = system: Amaranthus retroflexus (AMARE); experiment: Herbicidal post-emergence action (Table B6); conditions: visual rating about 3 weeks after treatment, 100% = plants have died, 0% = like control plants
# In short: as §2
SMILES,Pre-emergence action against Poa annua (POAAN) (Poa annua (POAAN) [1]; dosage 320 g/ha) [%],Pre-emergence action against Poa annua (POAAN) (Poa annua (POAAN) [1]; dosage 1280 g/ha) [%],Post-emergence action against Echinochloa crus-galli (ECHCG) ([2]; 320 g/ha) [%],Post-emergence action against Echinochloa crus-galli (ECHCG) ([2]; 1280 g/ha) [%],Pre-emergence action against Amaranthus retroflexus (AMARE) ([3]; dosage 320 g/ha) [%],Pre-emergence action against Amaranthus retroflexus (AMARE) ([3]; dosage 1280 g/ha) [%],herbicidal activity against the harmful plants of Tables B1-B12 in post-emergence treatment [4],Post-emergence action against Abutilon theophrasti (ABUTH) ([5]; 320 g/ha) [%],Post-emergence action against Abutilon theophrasti (ABUTH) ([5]; 1280 g/ha) [%],Post-emergence action against Setaria viridis (SETVI) (Setaria viridis (SETVI) [6]; 1280 g/ha) [%],Pre-emergence action against Stellaria media (STEME) (Stellaria media (STEME) [7]; dosage 320 g/ha) [%],Pre-emergence action against Stellaria media (STEME) (Stellaria media (STEME) [7]; dosage 1280 g/ha) [%],Pre-emergence action against Echinochloa crus-galli (ECHCG) ([8]; dosage 1280 g/ha) [%],Post-emergence action against Poa annua (POAAN) (Poa annua (POAAN) [9]; 320 g/ha) [%],Post-emergence action against Poa annua (POAAN) (Poa annua (POAAN) [9]; 1280 g/ha) [%],Post-emergence action against Lolium rigidum (LOLRI) (Lolium rigidum (LOLRI) [10]; 1280 g/ha) [%],herbicidal activity against the harmful plants of Tables C1-C12 in pre-emergence treatment [11],Pre-emergence action against Setaria viridis (SETVI) (Setaria viridis (SETVI) [12]; dosage 320 g/ha) [%],Pre-emergence action against Setaria viridis (SETVI) (Setaria viridis (SETVI) [12]; dosage 1280 g/ha) [%],Pre-emergence action against Lolium rigidum (LOLRI) (Lolium rigidum (LOLRI) [13]; dosage 1280 g/ha) [%],further results
Fc1cc(Cl)cnc1Oc1ccccc1-c1cc(C(F)F)no1 [Example 1-36],100,100,100,100,100,100,very good herbicidal activity,100,100,100,100,100,100,100,100,100,very good herbicidal activity,100,100,90,Post-emergence action against Stellaria media (STEME) (Stellaria media (STEME) [14]; dosage 320 g/ha): 100%; Post-emergence action against Stellaria media (STEME) (Stellaria media (STEME) [14]; dosage 1280 g/ha): 100%; Pre-emergence action against Abutilon theophrasti (ABUTH) ([15]; dosage 1280 g/ha): 100%; Post-emergence action against Amaranthus retroflexus (AMARE) ([16]; dosage 320 g/ha): 100%; Post-emergence action against Amaranthus retroflexus (AMARE) ([16]; dosage 1280 g/ha): 100%
Fc1cccc(Oc2ccc(Br)cn2)c1-c1cc(C(F)F)no1 [Example 1-40],100,100,100,100,100,100,very good herbicidal activity,100,100,100,100,100,100,100,100,100,very good herbicidal activity,100,100,100,Post-emergence action against Setaria viridis (SETVI) (Setaria viridis (SETVI) [6]; 320 g/ha): 100%; Pre-emergence action against Echinochloa crus-galli (ECHCG) ([8]; dosage 320 g/ha): 100%; Post-emergence action against Lolium rigidum (LOLRI) (Lolium rigidum (LOLRI) [10]; 320 g/ha): 100%; Pre-emergence action against Lolium rigidum (LOLRI) (Lolium rigidum (LOLRI) [13]; dosage 320 g/ha): 90%; Post-emergence action against Stellaria media (STEME) (Stellaria media (STEME) [14]; dosage 320 g/ha): 100%; Post-emergence action against Stellaria media (STEME) (Stellaria media (STEME) [14]; dosage 1280 g/ha): 100%; Pre-emergence action against Abutilon theophrasti (ABUTH) ([15]; dosage 320 g/ha): 100%; Pre-emergence action against Abutilon theophrasti (ABUTH) ([15]; dosage 1280 g/ha): 100%; Post-emergence action against Amaranthus retroflexus (AMARE) ([16]; dosage 320 g/ha): 100%; Post-emergence action against Amaranthus retroflexus (AMARE) ([16]; dosage 1280 g/ha): 100%
